Laboratory results as given in US20160166536A1, “COMBINATION THERAPY FOR THE TREATMENT OF CANCER” (NORTHWESTERN UNIVERSITY, priority 2014, published 2016).

Experiments:
Format in all cases: cell-based
MDA-MB-231 cells = experiment: MTS proliferation assay, MDA-MB-231 cells on tissue culture plates (2D TCPS); settings: 48 h
Method: To evaluate the effectiveness of Eribulin and CYC065 in inhibiting tumor cell proliferation of triple-negative breast cancer cells, the breast cancer cell line MDA-MB-231 having the triple-negative phenotype was tested. MDA-MB-231 cells were seeded on tissue culture plates and cultured for ˜18 h. Cells were treated with different doses of either drug [Eribulin (0.1 nM-100 nM); CYC065 (50 nM-1000 nM)] for 48 h. Proliferation was quantified using the MTS assay.
(§1) The ability of a composition including Eribulin and CYC065 to inhibit inhibiting tumor cell proliferation of triple-negative breast cancer cells was evaluated in three different cell lines having the triple-negative phenotype: MDA-MB-231 (FIG. 2A), […] (FIG. 2B) and MDA-MB-436 (FIG. 2C). The cells were seeded on tissue culture plates and cultured for ˜18 h. The cells were then contacted with 300 nM CYC065 alone, 5 nM Eribulin alone or a combination of 300 nM CYC065 and 5 nM Eribulin for 48 h.
MDA-MB-231 cells were seeded on 2D TCPS at 5000 cells/well and cultured for ˜18 h. […] Proliferation was quantified using the MTS assay.
MDA-MB-231, HS-578T and MDA-MB-436 cells lines were seeded on TCPS at 5000 cells/well and cultured for ˜18 h. […] Proliferation was quantified using the MTS assay. […] (N≧4 for all groups.) Data was analyzed using one-way ANOVA and comparison between groups post ANOVA was performed using Tukey HSD test.

MDA-MB-436 cells = experiment: MTS proliferation assay, MDA-MB-436 cells on TCPS; settings: 300 nM CYC065 alone, 5 nM Eribulin alone or their combination, 48 h, FIG. 2C
Method: as §1
(§2) MDA-MB-231, HS-578T and MDA-MB-436 cells lines were seeded on TCPS at 5000 cells/well and cultured for ˜18 h. They were then treated with 300 nM CYC065 and 5 nM Eribulin or their combination for 48 h. Proliferation was quantified using the MTS assay. […] (N≧4 for all groups.) Data was analyzed using one-way ANOVA and comparison between groups post ANOVA was performed using Tukey HSD test.

HS-578T cells = experiment: MTS proliferation assay, HS-578T cells on TCPS; settings: 300 nM CYC065 alone, 5 nM Eribulin alone or their combination, 48 h, FIG. 2B
Method: as §1, §2

## C=C1C[C@@H]2CC[C@@]34C[C@H]5O[C@H]6[C@@H](O3)[C@H]3O[C@H](CC[C@@H]3O[C@H]6[C@H]5O4)CC(=O)C[C@@H]3[C@@H](OC)[C@@H](C[C@H](O)CN)O[C@H]3C[C@H]3O[C@@H](CC[C@@H]1O2)C[C@@H](C)C3=C [Eribulin, 2-(3-Amino-2-hydroxypropyl)hexacosahydro-3-methoxy-26-methyl-20,27-bis(methylene)11,15-18,21-24,28-triepoxy-7,9-ethano-12,15-methano-9H,15H-furo(3,2-i)furo(2′,3′-5,6) pyrano(4,3-b)(1,4)dioxacyclopentacosin-5-(4H)-one]
MDA-MB-231 cells; 300 nM CYC065 alone, 5 nM Eribulin alone or their combination, FIG. 2A
  inhibition of tumor cell proliferation: inhibited tumor cell proliferation
MDA-MB-231 cells; Eribulin 0.1 nM-100 nM, CYC065 50 nM-1000 nM, FIGS. 1A, 1B
  inhibition of cell proliferation, dose response: inhibit proliferation in the nM range
MDA-MB-436 cells
  inhibition of tumor cell proliferation: inhibited tumor cell proliferation
HS-578T cells
  inhibition of tumor cell proliferation: inhibited tumor cell proliferation
